The supplement of paper PMC10307832

Columns and labels:
Assay in all cases: relative viability (nuclei count vs DMSO), 5 days (fraction); higher = more cells survive
[1] = compound: CC1=CC=C(C=C1)C(=O)CN2C3=C(CCCC3)SC2=N [Pifithrin_alpha]
Summary of the method: (§1)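 In 1536-well plates, lung cancer cell lines rested overnight at 37 °C before five library-drug doses (not always all listed), √10 apart, were pinned onto vehicle-anchored plates. Nuclei were counted with MetaXpress from 4× Hoechst images taken after 5 days without medium change. Viability compares treated-well with vehicle-well nuclei as a median over plates, and plates needed control CV below 25% plus at least one doubling to pass.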

[2] = compound: CNC(=O)c1ccccc1Sc1ccc2c(/C=C/c3ccccn3)n[nH]c2c1 [Axitinib]
Summary of the method: as §1

[3] = compound: Nc1nc(Nc2ccc3c(c2)CC[C@@H](N2CCCC2)CC3)nn1-c1cc2c(nn1)-c1ccccc1CCC2 [Bemcentinib]
Summary of the method: as §1

[4] = compound: CNC(=O)c1ccccc1Sc1ccc2c(/C=C/c3ccccn3)n[nH]c2c1 [Axitinib] + Cc1nc(Nc2ncc(C(=O)Nc3c(C)cccc3Cl)s2)cc(N2CCN(CCO)CC2)n1 [Dasatinib] (partner 0.075 µM)
Summary of the method: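 For relative viability, nuclei counts in treated wells were divided by those in vehicle wells. Lung cancer cell lines had been pin-tool dosed in 1536-well plates the day after seeding and cultured for 5 days, then fixed and stained in one step (final 0.05% Triton X-100, 1% formaldehyde, 1 ug/ml Hoechst) and imaged at 4×. Doses were one drug alone or a fixed anchor-drug dose plus five library-drug doses (not always all listed) in √10 steps, and values are duplicate-plate medians.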

Row | Cell Line | relative viability ([1]; 1 µM) | relative viability ([1]; 3.162 µM) | relative viability ([1]; 10 µM) | relative viability ([1]; 31.62 µM) | relative viability ([1]; 100 µM) | relative viability ([2]; 0.005 µM) | relative viability ([2]; 0.01581 µM) | relative viability ([2]; 0.05 µM) | relative viability ([2]; 0.1581 µM) | relative viability ([2]; 0.5 µM) | relative viability ([3]; 0.04 µM) | relative viability ([3]; 0.1265 µM) | relative viability ([3]; 0.4 µM) | relative viability ([3]; 1.265 µM) | relative viability ([3]; 4 µM) | relative viability ([4]; first compound 0.005 µM) | relative viability ([4]; first compound 0.01581 µM) | relative viability ([4]; first compound 0.05 µM) | relative viability ([4]; first compound 0.1581 µM) | relative viability ([4]; first compound 0.5 µM)
1 | 201T | 0.992 | 0.781 | 0.679 | 0.646 | 0.724 | 0.994 | 0.936 | 0.953 | 0.964 | 0.955 | 0.943 | 0.982 | 1.05 | 0.947 | 1.01 | 0.557 | 0.553 | 0.567 | 0.526 | 0.562
2 | A549 | 1.03 | 1.01 | 1 | 0.889 | 1.01 | 0.997 | 0.95 | 0.95 | 0.877 | 1.02 | 0.977 | 1.13 | 0.984 | 1.04 | 1.02 | – | – | – | – | –
3 | A-427 | 0.975 | 0.957 | 0.804 | 0.788 | 1.02 | 1.02 | 0.93 | 1.02 | 1.02 | 0.964 | 0.935 | 1.11 | 1.05 | 0.93 | 0.931 | 0.69 | 0.644 | 0.807 | 0.697 | 0.769
4 | ABC-1 | 0.523 | 0.85 | 0.788 | 0.55 | 0.731 | 0.945 | 0.863 | 0.985 | 0.812 | 1.08 | 0.78 | 1.14 | 1.16 | 0.865 | 0.984 | 0.738 | 0.686 | 0.486 | – | 0.638
5 | BEN | 0.854 | 1.02 | 1.14 | 0.93 | 1.08 | 0.958 | 1.01 | 0.902 | 0.868 | 0.741 | 0.833 | 1.13 | 1.08 | 0.919 | 0.894 | 0.293 | 0.264 | 0.314 | 0.365 | 0.263
6 | CAL-12T | 0.778 | 1 | 0.937 | 0.711 | 0.765 | 1.03 | 1 | 0.983 | 0.94 | 0.977 | 0.989 | 1.02 | 1.06 | 1.02 | 1.01 | 0.603 | 0.448 | 0.367 | 0.38 | 0.405
7 | COR-L23 | 1.07 | 1.09 | 0.977 | – | 0.94 | 1.05 | 0.93 | 1.06 | 0.923 | 1.05 | 1.03 | 1.17 | 1.14 | 1.18 | 1.12 | 0.53 | 0.542 | 0.438 | 0.493 | 0.674
8 | COR-L 105 | 0.792 | 0.841 | 0.862 | 0.695 | 0.758 | 0.995 | 0.786 | 1.02 | 0.868 | 1.2 | 0.726 | 0.964 | 1.06 | 0.912 | 1.04 | 0.318 | 0.327 | 0.417 | 0.303 | 0.415
9 | Calu-6 | 1.06 | 1.05 | 1 | 0.655 | 0.899 | 1.08 | 0.999 | 1.03 | 1 | 1.12 | 1.07 | 1.15 | 1.13 | 1.08 | 1.05 | – | – | – | – | –
